The subject of assay [1] is ulcerogenic properties of indomethacin. Description: Protection against indomethacin-induced ulcers (oral gavage). The class given is in vivo, rat. Particulars: rats, indomethacin 20 mg./kg. s.c., score 0 normal to 4 many ulcers. On the procedure: The compounds of this invention provide protection against the ulcerogenic properties of indomethacin. This assay was carried out in the following manner.
Rats were starved for 48 hours (water was given ad libitum). Indomethacin (20 mg./kg. of body weight) was administered by the subcutaneous route and one-half the dose of the test compound was administered by gavage at the same time. After three hours, the second half of the test compound was administered also be gavage. Five hours after the administration of indomethacin the animals were decapitated and the stomachs removed. The stomachs were washed with distilled water, blotted on gauze, cut along the larger curvature, and the contents rinsed with distilled water. The stomachs were spread out, pinned on a cork and visualized under magnifying glass for ulcers. The criteria for scoring of ulcers was as previously reported. [Abdel-Galil et al. Brit. J. Pharmac. Chemotherapy 33:1-14 (1968)].
1-Petechial hemorrhage or pin point ulder
3 Many ulcers, a few large
4-Many ulcers, mainly large
Control animals treated with indomethacin but not test compound consistenly give scores of about 3.0. Control animals treated with neither indomethacin nor test compound gives scores of about 0.5-0.8. Compounds producing a lowering of the control score by 0.5 or more are considered to be active.

The test system of assay [2] is bronchospasms elicited by 5-hydroxytryptamine. Description: Bronchodilator activity (Konzett assay), spasmogen 5-hydroxytryptamine. The class given is in vivo, guinea pig. Particulars: Cavia porcellus; guinea pigs, spasmogen 5-hydroxytryptamine i.v.; three logarithmic cumulative intravenous doses. The method, then: (§1) Bronchodilator activity was determined in guinea pigs against bronchospasms elicited by intravenous injections of 5-hydroxytryptamine, histamine or acetylcholine by the Konzett procedure. [See J. Lulling, P. Lievens, F. El Sayed and J. Prignot, Arzneimittel-Forschung, 18, 995 (1968).]
(§2) In the Table which follows bronchodilator activity for representative compounds of this invention against one or more of three spasmogenic agents is expressed as an ED50 determined from the results obtained with three logarithemic cumulative intravenous doses.

Assay [3] relates to bronchospasms elicited by histamine. Description: Bronchodilator activity (Konzett assay), spasmogen histamine. Type of assay: in vivo, guinea pig. The settings on record: Cavia porcellus; guinea pigs, spasmogen histamine i.v.; three logarithmic cumulative intravenous doses. On the procedure: as §1, §2
Assay [4] deals with bronchospasms elicited by acetylcholine. Description: Bronchodilator activity (Konzett assay), spasmogen acetylcholine. Type of assay: in vivo, guinea pig. Particulars: Cavia porcellus; guinea pigs, spasmogen acetylcholine i.v.; three logarithmic cumulative intravenous doses. The method, then:
as §1, §2

Consider `O=C(O)CCCCCC[C@H]1C(=O)CC[C@@H]1/C=C/[C@H](O)CC1CCCC1` (relative stereo) [9-oxo-15-epi-hydroxy-17,20-methano-13-trans-prostenoic acid], for which, in assay [1] (total oral dose 25.0 mg./kg. of body weight, control score 3.0), the “Score, treated (ulcer score)” value is 1.7. Besides, the ED50 came to 3.2 mg/kg in assay [2], 0.206 mg/kg in assay [3] and 3.2 mg/kg in assay [4].

With `O=C(O)CCCCCC[C@H]1C(=O)CC[C@@H]1/C=C/[C@@H](O)CC1CCCC1` (relative stereo) [9-oxo-15-hydroxy-17,20-methano-13-trans-prostenoic acid], in assay [1] (total oral dose 12.5 mg./kg. of body weight, control score 2.8), the “Score, treated (ulcer score)” value is on record as 1.8. In addition, the ED50 was 0.0063 mg/kg in assay [2], 0.0014 mg/kg in assay [3] and 3.2 mg/kg in assay [4].

(Values after patent US4180677A, “Novel prostaglandins” (American Cyanamid Company, priority 1977, dated 1979).)
